Test results reported in US11149008B2, “Sulfamide derivatives and preparation method and use thereof” (HitGen Ltd., priority 2015, dated 2021).

How the values were obtained:
HDAC 1 = HDAC 1 (Homo sapiens, UniProt Q13547); experiment: Enzyme activity detection of histone deacetylase 1 (fluorogenic substrate deacetylation); assay type: biochemical; settings: 0.28 ng/μL HDAC 1, 10 μM substrate; IC50 class
Text: (§1) During the deacetylation detection of a substrate, the HDAC inhibition activity of the compound of the present invention was detected.
C: Enzyme Activity Detection of Histone Deacetylase 1
(§2) Acetyl on the substrate was removed by the HDAC 1, so that the substrate was activated, and the developing liquid added subsequently could act on the substrate to release the fluorescent group. The size of the fluorescence signal reflected the activity of the HDAC 1. The IC50 detection method for this enzyme was disclosed in Chuping Xu, Elisabetta Soragni Improved Histone Deacetylase Inhibitors as Therapeutics for the Neurdegenerative Disease Friedreich's Ataxia: A New Synthetic Route. The total reaction system (100 μL/well) contained 0.28 ng/μL of HDAC 1, 10 μM of the substrate and the compound in different concentrations. The fluorescence signal was detected online at Ex/Em=360/460. The inhibition effect of the compound was determined from the obtained data, a concentration response curve was obtained by using the inhibition effect and the concentration of the compound, and the value of IC50 was fitted according to a four-parameter model.
(§3) The activities of the compounds prepared in the embodiments against the histone deacetylases 1, 3 and 6 (i.e., HDAC 1, HDAC 3 and HDAC 6) were detected by the above methods, and the test results were shown in Table 2, where the measurements of IC50 of the compounds were classified according to the following description: […]

HCT-116 cells = experiment: Cell growth inhibition measurement (CCK-8), HCT-116; assay type: cell-based; settings: Homo sapiens, HCT-116, 72 h, highest EC50 measured during one or multiple operations, read-out: Inhibition activity against cancer cells, HCT-116 (EC50)
Text: A HepG2 cell strain and an HCT-116 cell strain were purchased from Shanghai Institutes for Biological Sciences; a DMEM high-sugar culture medium and an MEM culture medium were purchased from Hyclone; fetal calf serum was purchased from Gibco; trypsin was purchased from Invitrogen Shanghai; a CCK-8 kit was purchased from Beyotime Institute of Biotechnology; and, the remaining cell culture mediums and other consumables were purchased from Corning China.
HepG2 cells and HCT-116 cells in the logarithmic growth phase were digested by trypsin. After the counting of uniform cell suspension, the cell density was adjusted as 1500 cells/well by a culture medium containing 10% serum. The cells were re-inoculated to a 96-well cell culture plate, and cultured to a volume of 200 μL at 37° C. in an incubator containing 5% CO2. The cells could be tested after being cultured for 24 h.
The cells cultured for 24 h were taken out from the incubator. The culture liquid in the well plate was sucked out, and 200 μL of compound solution prepared in the culture medium containing 10% fetal calf serum was added in each well. Five parallel mediums were provided for each concentration, and a DMSO culture medium was used as negative control. The culture mediums were cultured for 72 h at 37° C. in an incubator containing 5% CO2, and CCK-8 detection was performed.
A serum-free culture medium and CCK-8 solution were prepared, and CCK-8 working solution was prepared at a ratio of 10:1 (this process should be performed in dark place).
The cells cultured for 72 h were taken out from the incubator. The culture liquid in the well plate was sucked out, and 120 μL of the CCK-8 working solution was added in each well. A well plate without cells was also added with 120 μL of the CCK-8 working solution to serve as blank control. The well plates were cultured for 1 h at 37° C. in an incubator containing 5% CO2 (this process should be performed in dark place).
The well plates were taken out from the incubator, 100 μL of solution in each well was sucked out and added in a new 96-well plate, and the absorbance was measured at 450 nm (this process should be performed in dark place).
where Tx is the absorbance of the CCK-8 after the compound acts for 72 h;
C is the absorbance of the CCK-8 after the negative control wells are cultured for 72 h; and
B is the absorbance of the CCK-8 in the blank control wells.
The test results of the compounds prepared according to the embodiments during the measurement are shown in Table 3, wherein the measured highest EC50 of the compounds during one operation or multiple operations is classified according to the following description: […]

HDAC 3 = molecular target: T1, HDAC 3 (Homo sapiens, UniProt O15379); experiment: Enzyme activity detection of histone deacetylase 3 (fluorogenic substrate deacetylation); assay type: biochemical; settings: 0.16 ng/μL HDAC 3, 10 μM substrate; IC50 class
T1 construct: purchased BPS Bioscience #50003
T1 sequence (O15379 whole entry): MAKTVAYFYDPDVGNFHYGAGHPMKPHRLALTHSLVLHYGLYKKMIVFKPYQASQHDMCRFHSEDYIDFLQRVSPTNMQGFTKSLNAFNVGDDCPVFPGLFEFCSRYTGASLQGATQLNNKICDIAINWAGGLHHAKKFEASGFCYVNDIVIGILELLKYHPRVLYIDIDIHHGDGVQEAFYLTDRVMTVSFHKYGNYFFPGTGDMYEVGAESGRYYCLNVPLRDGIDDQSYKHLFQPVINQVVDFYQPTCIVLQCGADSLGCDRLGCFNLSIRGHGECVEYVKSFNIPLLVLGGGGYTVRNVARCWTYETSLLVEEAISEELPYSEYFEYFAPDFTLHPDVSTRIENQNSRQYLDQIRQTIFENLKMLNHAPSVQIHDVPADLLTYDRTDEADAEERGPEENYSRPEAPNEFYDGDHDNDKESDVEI
T1 sequence (Q9Y618 395-489 partner limits assumed): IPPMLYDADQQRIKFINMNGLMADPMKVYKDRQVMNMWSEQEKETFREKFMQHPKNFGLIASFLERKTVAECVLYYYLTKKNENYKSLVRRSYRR
Text: as §1
B: Enzyme Activity Detection of Histone Deacetylase 3 (#50003, BPS Bioscience)
as §2, with “3,” for “1,”, “3.” for “1.”, “0.16” for “0.28”
as §3

Chain of HDAC 1 (Q13547 whole entry, species assumed): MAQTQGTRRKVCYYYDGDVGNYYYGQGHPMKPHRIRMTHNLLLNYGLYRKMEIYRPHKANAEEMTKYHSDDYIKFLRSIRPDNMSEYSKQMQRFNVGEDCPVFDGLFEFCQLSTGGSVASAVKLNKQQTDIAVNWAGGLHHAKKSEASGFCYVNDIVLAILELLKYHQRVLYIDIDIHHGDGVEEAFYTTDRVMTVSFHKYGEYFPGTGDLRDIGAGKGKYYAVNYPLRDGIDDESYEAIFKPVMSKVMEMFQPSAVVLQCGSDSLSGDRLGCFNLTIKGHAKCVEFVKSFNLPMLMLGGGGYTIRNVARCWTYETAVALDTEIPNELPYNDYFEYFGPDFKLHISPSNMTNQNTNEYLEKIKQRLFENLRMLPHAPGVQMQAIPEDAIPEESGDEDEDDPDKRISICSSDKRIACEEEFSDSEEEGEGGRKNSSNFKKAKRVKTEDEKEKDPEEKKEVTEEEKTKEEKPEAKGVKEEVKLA

IC50 (HDAC 1): < 100 nM | EC50 (HCT-116 cells): < 100 nM | IC50 (HDAC 3): < 100 nM
SMILES: CN1CCN(c2ccc(-c3ccc(S(=O)(=O)N4CC=C(C(=O)NO)CC4)cc3)cc2)CC1 [Compound 29, N-hydroxyl-1-((4′-(4-methylpiperazinyl)-[1,1′-biphenyl]-4-yl)sulfonyl)-1,2,3,6-tetrahydropyridine-4-formamide]
